Non-standard residues stand in square brackets, D forms with d. Residues, ends and D or L forms follow the SMILES beside them. *: point of attachment. Dolaproine = CO[C@@H]([C@@H]1CCCN1)[C@@H](C)C(=O)O; Dil = CC[C@H](C)[C@H](NC)[C@@H](CC(=O)O)OC; X1 = C[C@@H](N*)[C@@H](O)c1ccccc1; NMeV = CN[C@H](C(=O)O)C(C)C
Legend:
[1] = biological target: permeability glycoprotein (Pgp) (Homo sapiens, UniProt P08183); settings: cited from earlier work
naïve CD8 T cells = assay: Free MMAE titration on activated T cell populations, viable cell counts; assay type: cell-based; settings: Naïve CDS; CD3/CD28 beads and IL-2 (10 ng/ml), 4 days; cell counts relative to untreated control
Experimental: (§1) To evaluate the effect of free MMAE on the various T cell populations, naïve (CD45RA+, CD45RO−) and memory (CD45RA−, CD45RO+) CD4 and CD8 T cells and CD25^hi CD127^lo T regulatory cells were enriched from healthy donor leukopaks and activated with CD3/CD28 beads and IL-2 (10 ng/ml) in round-bottom 96-well tissue culture plates for 4 days with a titration of free monomethyl auristatin E (MMAE). […] Data are represented as cell counts relative to untreated control.

naïve CD4 T cells = assay: as above; assay type: cell-based; settings: CD3/CD28 beads and IL-2 (10 ng/ml), 4 days, cell counts relative to untreated control
Experimental: as §1

[2] = system: T regulatory cells (Treg); assay: as above; assay type: cell-based; settings: CD3/CD28 beads and IL-2 (10 ng/ml), 4 days, cell counts relative to untreated control
Experimental: as §1

memory CD8 T cells = assay: as above; assay type: cell-based; settings: Memory CDS; CD3/CD28 beads and IL-2 (10 ng/ml), 4 days; cell counts relative to untreated control
Experimental: as §1

memory CD4 T cells [3] = assay: as above; assay type: cell-based; settings: CD3/CD28 beads and IL-2 (10 ng/ml), 4 days, cell counts relative to untreated control
Experimental: as §1

CYP3A4 = CYP3A4 (Homo sapiens, UniProt P08684); settings: cited from earlier work
CD30+ cell lines = settings: in vitro; cited from earlier work
[4] = system: Hodgkin disease xenograft; settings: SCID mouse xenograft models of Hodgkin disease; cited from earlier work
memory CD4 T cells [5] = assay: Effect of BV on activated T cell viability (FACS); assay type: cell-based
Experimental: (§2) To evaluate the effect of BV on activated T cell viability, naïve, memory, and Treg subsets were driven to proliferate in vitro in the presence of BV or control antibody-drug conjugate (ADC). Briefly, T cell subsets were mixed with CD3/CD28 beads (4:1)+IL-2 10 ng/ml in RPMI 10% FCS and distributed −2.0×10^4 cells/well into a 96-well round-bottom plate. A titration of BV or control IgG-MMAE was added to replicate wells, for a final volume of 200 μl, and plates were incubated at 37° C. for 4 days. On the final day of the assay, cells were stained with Zombie® Aqua Viability Dye and a non-competing monoclonal μCD30-PE (Biolegend) for FACS analysis. […] Cell counts are shown as the percent of untreated control.

Treg = assay: Effect of BV on activated T cell viability (FACS); assay type: cell-based
Experimental: as §2

Tregs = settings: subjects with CD30+ lymphomas; cited from earlier work
[6] = CD3/CD28 beads + IL-2, BV titration, 4 days, n=4, FIG. 1A

CYP3A4, sequence (P08684 whole entry): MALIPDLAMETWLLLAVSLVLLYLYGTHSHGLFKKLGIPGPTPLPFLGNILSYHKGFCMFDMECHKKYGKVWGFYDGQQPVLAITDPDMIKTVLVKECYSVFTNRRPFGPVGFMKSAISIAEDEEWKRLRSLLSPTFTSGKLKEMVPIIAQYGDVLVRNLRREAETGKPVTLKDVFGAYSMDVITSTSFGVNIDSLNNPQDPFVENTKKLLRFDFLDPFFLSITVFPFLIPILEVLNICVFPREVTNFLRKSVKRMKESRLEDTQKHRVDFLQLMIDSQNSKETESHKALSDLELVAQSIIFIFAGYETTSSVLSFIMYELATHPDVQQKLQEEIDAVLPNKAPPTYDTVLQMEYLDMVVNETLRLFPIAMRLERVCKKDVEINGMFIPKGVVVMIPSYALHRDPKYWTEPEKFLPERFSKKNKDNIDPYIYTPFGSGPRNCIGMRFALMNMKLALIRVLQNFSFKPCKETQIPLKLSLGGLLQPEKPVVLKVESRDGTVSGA
permeability glycoprotein (Pgp), sequence (P08183 whole entry): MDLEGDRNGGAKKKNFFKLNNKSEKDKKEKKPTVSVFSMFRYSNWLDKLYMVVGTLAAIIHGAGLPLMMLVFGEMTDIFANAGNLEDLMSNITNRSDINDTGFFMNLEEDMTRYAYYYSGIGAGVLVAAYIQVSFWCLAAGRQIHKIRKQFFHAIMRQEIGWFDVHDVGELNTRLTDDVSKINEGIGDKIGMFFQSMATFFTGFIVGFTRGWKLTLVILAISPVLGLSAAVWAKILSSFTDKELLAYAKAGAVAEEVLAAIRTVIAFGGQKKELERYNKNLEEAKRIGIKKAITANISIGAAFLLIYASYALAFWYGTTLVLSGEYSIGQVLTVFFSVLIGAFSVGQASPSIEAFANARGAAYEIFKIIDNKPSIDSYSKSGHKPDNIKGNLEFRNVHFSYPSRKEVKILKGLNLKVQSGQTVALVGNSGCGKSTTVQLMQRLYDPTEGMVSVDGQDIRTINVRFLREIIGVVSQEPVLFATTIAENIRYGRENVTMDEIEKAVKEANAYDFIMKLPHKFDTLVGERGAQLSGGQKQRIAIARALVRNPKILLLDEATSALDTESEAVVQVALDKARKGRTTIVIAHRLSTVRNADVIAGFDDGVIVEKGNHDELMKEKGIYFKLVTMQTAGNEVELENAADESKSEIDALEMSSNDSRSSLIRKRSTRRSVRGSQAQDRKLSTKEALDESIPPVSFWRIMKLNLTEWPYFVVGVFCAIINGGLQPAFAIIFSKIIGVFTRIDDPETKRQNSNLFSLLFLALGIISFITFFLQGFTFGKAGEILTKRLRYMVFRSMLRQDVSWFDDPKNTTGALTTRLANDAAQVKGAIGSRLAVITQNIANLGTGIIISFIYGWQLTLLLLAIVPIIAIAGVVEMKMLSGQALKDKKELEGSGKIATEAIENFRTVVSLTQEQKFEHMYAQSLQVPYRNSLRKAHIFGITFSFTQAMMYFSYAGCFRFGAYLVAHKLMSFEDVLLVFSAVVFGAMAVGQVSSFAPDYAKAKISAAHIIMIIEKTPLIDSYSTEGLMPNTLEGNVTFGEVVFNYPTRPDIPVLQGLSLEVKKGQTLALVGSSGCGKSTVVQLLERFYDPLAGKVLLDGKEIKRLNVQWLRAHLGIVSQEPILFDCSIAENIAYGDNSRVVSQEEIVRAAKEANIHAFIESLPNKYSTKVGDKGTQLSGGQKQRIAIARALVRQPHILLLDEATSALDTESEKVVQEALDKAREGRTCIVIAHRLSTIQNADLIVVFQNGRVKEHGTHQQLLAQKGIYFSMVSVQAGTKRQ

CC[C@H](C)[C@@H]([C@@H](CC(=O)N1CCC[C@H]1[C@H](OC)[C@@H](C)C(=O)N[C@H](C)[C@@H](O)c1ccccc1)OC)N(C)C(=O)[C@@H](NC(=O)[C@@H](NC)C(C)C)C(C)C [MMAE, monomethyl auristatin E] (H-[NMeV]V[Dil][Dolaproine]-X1)
Pgp substrate [1]: known Pgp substrate | IC50 (naïve CD8 T cells): 1.96 nM | IC50 (naïve CD4 T cells): 1.13 nM | IC50 [2]: 0.43 nM | IC50 (memory CD8 T cells): 0.77 nM | IC50 (memory CD4 T cells [3]): 0.55 nM | metabolism (CYP3A4): primarily metabolized by CYP3A4

cAC10
growth of CD30+ cell lines (CD30+ cell lines): induces growth arrest | antitumor activity [4]: pronounced antitumor activity

B1: brentuximab vedotin (conjugate)
VH: QIQLQQSGPEVVKPGASVKISCKASGYTFTDYYITWVKQKPGQGLEWIGWIYPGSGNTKYNEKFKGKATLTVDTSSSTAFMQLSSLTSEDTAVYFCANYGNYWFAYWGQGTQVTVSA
VL: DIVLTQSPASLAVSLGQRATISCKASQSVDFDGDSYMNWYQQKPGQPPKVLIYAASNLESGIPARFSGSGSGTDFTLNIHPVEEEDAATYYCQQSNEDPWTFGGGTKLEIK
total viable memory CD4 T cell numbers (memory CD4 T cells [5]; [6]): dose-dependent reduction | numbers of viable CD30+ cells (memory CD4 T cells [5]; CD30+ memory CD4 T cells, end of 4-day assay, FIG. 1B): enhanced depletion | total viable Treg cell numbers (Treg; [6]): dose-dependent reduction | numbers of viable CD30+ cells (Treg; CD30+ Treg, end of 4-day assay, FIG. 1B): enhanced depletion | change in Tregs (Tregs): reduction in Tregs
